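Tested at 5 concentrations; 48 h exposure; 96-well plates; endpoints linearly interpolated, else capped at highest concentration. TGI: total growth inhibition.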
Legend:
Experiment in all cases: growth of human tumour cells (NCI), 48 h
RPMI-8226 leukemia = tested on: RPMI-8226 leukemia
A498 renal = tested on: A498 renal
HS 578T breast = tested on: HS 578T breast
786-0 renal = tested on: 786-0 renal
HOP-62 NSCLC = tested on: HOP-62 NSCLC
NCI-H522 lung = tested on: NCI-H522 lung
MDA-MB-435 = tested on: MDA-MB-435
OVCAR-3 ovarian = tested on: OVCAR-3 ovarian
CCRF-CEM leukemia = tested on: CCRF-CEM leukemia
HCT-15 colon = tested on: HCT-15 colon
PC-3 prostate = tested on: PC-3 prostate
SK-OV-3 ovarian = tested on: SK-OV-3 ovarian
ACHN renal = tested on: ACHN renal
SF-539 CNS = tested on: SF-539 CNS
OVCAR-8 ovarian = tested on: OVCAR-8 ovarian
UACC-62 melanoma = tested on: UACC-62 melanoma
UACC-257 melanoma = tested on: UACC-257 melanoma
SF-268 CNS = tested on: SF-268 CNS
SNB-19 CNS = tested on: SNB-19 CNS
SN12C renal = tested on: SN12C renal
SK-MEL-5 melanoma = tested on: SK-MEL-5 melanoma
TK-10 renal = tested on: TK-10 renal
U251 CNS = tested on: U251 CNS
SR leukemia = tested on: SR leukemia
DU-145 prostate = tested on: DU-145 prostate
HOP-92 NSCLC = tested on: HOP-92 NSCLC
T-47D breast = tested on: T-47D breast
COLO 205 colon = tested on: COLO 205 colon
CAKI-1 renal = tested on: CAKI-1 renal
MDA-MB-231 breast = tested on: MDA-MB-231 breast
OVCAR-4 ovarian = tested on: OVCAR-4 ovarian
MDA-N = tested on: MDA-N
M14 melanoma = tested on: M14 melanoma
UO-31 renal = tested on: UO-31 renal
SNB-75 CNS = tested on: SNB-75 CNS
IGROV1 ovarian = tested on: IGROV1 ovarian
K-562 leukemia = tested on: K-562 leukemia
SF-295 CNS = tested on: SF-295 CNS
MCF7 breast = tested on: MCF7 breast
BT-549 breast = tested on: BT-549 breast
SW-620 colon = tested on: SW-620 colon
LOX IMVI melanoma = tested on: LOX IMVI melanoma
NCI-H460 lung = tested on: NCI-H460 lung
NCI/ADR-RES ovarian = tested on: NCI/ADR-RES ovarian
NCI-H226 lung = tested on: NCI-H226 lung
OVCAR-5 ovarian = tested on: OVCAR-5 ovarian
MALME-3M melanoma = tested on: MALME-3M melanoma
RXF 393 renal = tested on: RXF 393 renal
HL-60(TB) leukemia = tested on: HL-60(TB) leukemia
EKVX NSCLC = tested on: EKVX NSCLC
SK-MEL-2 melanoma = tested on: SK-MEL-2 melanoma
HCT-116 colon = tested on: HCT-116 colon
HT29 colon = tested on: HT29 colon
SK-MEL-28 melanoma = tested on: SK-MEL-28 melanoma
A549 NSCLC = tested on: A549 NSCLC
HCC-2998 colon = tested on: HCC-2998 colon
KM12 colon = tested on: KM12 colon
NCI-H23 lung = tested on: NCI-H23 lung

Compound: CC(Oc1ccccc1Cl)C(=O)NN1C(=O)CSC1c1ccc(Cl)cc1 (stereo not drawn)
- TGI (RPMI-8226 leukemia): 38.4 µM
- TGI (A498 renal): 34.8 µM
- TGI (HS 578T breast): 46.3 µM
- TGI (786-0 renal): 28.6 µM
- TGI (HOP-62 NSCLC): 36.4 µM
- TGI (NCI-H522 lung): 32.8 µM
- TGI (MDA-MB-435): 31.1 µM
- TGI (OVCAR-3 ovarian): 61.9 µM
- TGI (CCRF-CEM leukemia): 0.381 µM
- TGI (HCT-15 colon): 43.8 µM
- TGI (PC-3 prostate): 38.2 µM
- TGI (SK-OV-3 ovarian): 39.7 µM
- TGI (ACHN renal): 63 µM
- TGI (SF-539 CNS): 65.3 µM
- TGI (OVCAR-8 ovarian): 56.5 µM
- TGI (UACC-62 melanoma): 34 µM
- TGI (UACC-257 melanoma): 45.1 µM
- TGI (SF-268 CNS): 47.6 µM
- TGI (SNB-19 CNS): 50.2 µM
- TGI (SN12C renal): 28 µM
- TGI (SK-MEL-5 melanoma): 31.7 µM
- TGI (TK-10 renal): 55.9 µM
- TGI (U251 CNS): 31.6 µM
- TGI (SR leukemia): 22.9 µM
- TGI (DU-145 prostate): 37.6 µM
- TGI (HOP-92 NSCLC): 40.7 µM
- TGI (T-47D breast): 52.1 µM
- TGI (COLO 205 colon): 37.1 µM
- TGI (CAKI-1 renal): 56.4 µM
- TGI (MDA-MB-231 breast): 32.7 µM
- TGI (OVCAR-4 ovarian): 29.3 µM
- TGI (MDA-N): 29.8 µM
- TGI (M14 melanoma): 34.5 µM
- TGI (UO-31 renal): > 100 µM
- TGI (SNB-75 CNS): 45.4 µM
- TGI (IGROV1 ovarian): 43 µM
- TGI (K-562 leukemia): 30.6 µM
- TGI (SF-295 CNS): 37.8 µM
- TGI (MCF7 breast): 35.7 µM
- TGI (BT-549 breast): 45.1 µM
- TGI (SW-620 colon): 55.2 µM
- TGI (LOX IMVI melanoma): 39 µM
- TGI (NCI-H460 lung): 59.8 µM
- TGI (NCI/ADR-RES ovarian): 61.4 µM
- TGI (NCI-H226 lung): 35.3 µM
- TGI (OVCAR-5 ovarian): 48 µM
- TGI (MALME-3M melanoma): 93.4 µM
- TGI (RXF 393 renal): 33.4 µM
- TGI (HL-60(TB) leukemia): 23.5 µM
- TGI (EKVX NSCLC): 71.6 µM
- TGI (SK-MEL-2 melanoma): 44.9 µM
- TGI (HCT-116 colon): 29.3 µM
- TGI (HT29 colon): 39.5 µM
- TGI (SK-MEL-28 melanoma): 49.2 µM
- TGI (A549 NSCLC): 41 µM
- TGI (HCC-2998 colon): 34.2 µM
- TGI (KM12 colon): 36.1 µM
- TGI (NCI-H23 lung): 39.2 µM
